Results on two molecules are retold here after patent US20180087086A1, “CELL EGRESS AND INVASION INHIBITORS AND THEIR USE AS ANTIPARASITICAL AGENTS” (THE JOHNS HOPKINS UNIVERSITY, priority 2015, published 2018).

Series [1] concerns P. berghei sporozoites. In words: trail radius of gliding sporozoites (ImageJ). It is filed as cell-based. The following applies: 62.5 μM; 130-150 trail radii; p-value <0.0001. As to the method: The trail radius was measured using ImageJ and the statistical analyses to determine standard error mean and t-test were performed using GraphPad.
The gliding phenotype was altered to determine whether the compounds were having off-target effects. While quantifying the number of deposited trails, the trail diameter in the presence of compounds was altered. An altered trail diameter is more likely due to either a direct effect on the motor or an effect on sporozoite shape. The diameter of the circular trails deposited by the parasites in the DMSO control was measured and in the presence of three compounds at 62.5 μM (FIG. 8). This concentration was chosen because at higher concentrations, there were not enough sporozoite trails to measure to do a statistical analysis of the results. Using ImageJ, circles were fit to trails in multiple images to measure 130-150 trail radii. The average trail radii increased in the presence of compounds 4, 17, and 18 with a p-value <0.0001. The increase in average trail size was 6.3 microns, 2.5 microns, and 3.6, for compounds 4, 17, and 18, respectively.

For series [2], the system named is P. berghei parasites constitutively expressing mCherry. The series is described as follows: live imaging of mCherry expressing sporozoite gliding. Type of series: cell-based. The following applies: for average gliding velocity: DMSO control 2.58+/−0.05 um/s; for total time spent gliding: 200 frame movies, control 46 frames; for pausing, fraction of active gliding time: control 7%; for waving sporozoites: manual assignment from z-stacks, control 15% waving. The source says:
To determine the compound effects on the speed of gliding and type of gliding movement, live imaging of mCherry expressing parasites was used. P. berghei parasites constitutively expressing mCherry were allowed to settle on slides and imaged using an inverted microscope at 1.57 fps. ImageJ and the ToAST plugin were used to track parasites for a minimum of 150 frames in the 200 frame movies. The coordinates obtained via the automated tracking were much more useful than those using manual tracking. The ToAST plugin provides automatic identification of sporozoites from debris by aspect ratio and pixel analysis. The program also measures velocity and determine whether sporozoites are gliding in counterclockwise (CCW) or clockwise (CW) patterns, or whether they are stationary or waving, with large changes in vector angles between images.
Instead, the output position data was reanalyzed using similar algorithms as defined by ToAST. Sporozoites were assigned to one of four states at each time point, CW gliding, CCW gliding, stationary, or waving. To determine the speed of gliding, the average velocity was determined for sections of time in which the sporozoite was gliding continuously for more than 6 frames. Sporozoites would often glide for a number of frames and then stop gliding for a number of frames before continuing movement, resulting in more than one block of frames representing continuous gliding. The average for each sporozoite was a weighted average of the average speed during each block of gliding. The DMSO control parasites traveled in a CCW and CW pattern at an average speed of 2.58+/−0.05 um/s. […] Compound 4 gliding information was collected at a lower concentration compared to compound 18 because it was not possible to obtain a sufficient number of circularly gliding parasites for analysis at the higher concentrations (FIG. 11A).
As previously mentioned, sporozoites would often glide for several frames, then stop or pause, and then continue gliding. Upon initial observation of compound 4 samples, it was observed that parasites tended to glide in a stop-and-go manner, gliding for 4-6 frames and then stopping for 2-3 frames. To determine whether these pauses deviated from those observed in the control, the movies were analyzed to determine the total amount of time spent circularly gliding over the course of the 200 frame movies (FIG. 11C). Additionally, the fraction of time that the sporozoites paused for during active gliding was measured (FIG. 11D). A pause was defined as a cessation of circular gliding for no more than 10 frames. The fraction of paused frames to moving frames was measured for stretches of active gliding. […] Compound 4 increased pausing to 32% of the active gliding time, while compound 18 increased pauses to just 16% (FIG. 11D).
Z-stack images were created using ImageJ using the average intensity in each frame. From these frames, patterns of movements to one of two categories were assigned, circular gliding or waving. Waving sporozoites are defined as having on end attached while the other end moves or waves freely (FIG. 11F), resulting in large angular changes in the direction of the vector that lies along the sporozoite. Both compound 4 and 18 changed the ratio between gliding and waving sporozoites. In the control, nearly 85% of sporozoites are gliding circularly and 15% waving, whereas 72% and 66% are waving in compound 4 and 18 samples, respectively.

The target in series [3] is MTRAP interaction with aldolase (Plasmodium falciparum, UniProt Q7KQL9). In words: MTRAP-aldolase interaction via SPR. It is filed as binding, P. falciparum. The following applies: as a function of compound concentration. The procedure:
FIG. 5A (Top) TRAP and FIG. 5B (Bottom) MTRAP show the interaction with aldolase in the presence of compounds 4 and 18 as a function of compound concentration as measured via SPR.
The dissociation constant for PfAldolase and PfTRAP, MTRAP and PvTRAP was measured by determining the binding response at various concentrations of aldolase passed over a chip with bound, biotinylated peptides (FIG. 3). Dissociation constants were in the mid-nanomolar range and matched with values previously reported in the literature (Boucher LE and Bosch J, J. Mol Recognit. 2013 Oct. 26(10): 496-500).
(FIG. 5A) TRAP and (FIG. 5B) MTRAP interaction with aldolase in the presence of compounds 4 and 18 is illustrated as a function of compound concentration as measured via SPR.
(In general: In SPR one partner is held on a chip, and binding of the other changes the refractive index at the surface.)

For series [4], the system named is sporozoites. The series is described as follows: sporozoite viability, 2 dye system of ethidium and calcein-AM. It is filed as cell-based. To be noted: for viability at 62.5 µM: 0.25 h, 15 min at room temperature, DMSO 96%; for sporozoite viability (ethidium/calcein-AM): extended 15 min incubation at 37° C. The procedure: FIG. 12A-FIG. 12C is a series of bar charts that show results of sporozoite viability assays. […] The total number of sporozoites was determined from phase images and the number of non-viable sporozoites from the count of red fluorescing sporozoites.
To further investigate viability, a 2 dye system of ethidium and calcein-AM was used to measure both membrane permeability, a marker of death, and enzyme activity, a marker of viability (FIG. 12B). Live cells with intact membranes are impermeable to the ethidium DNA dye but are permeable to the calcein-AM dye, which can interact with active esterases and will fluoresce green. Dying cells allow the ethidium to cross the membrane and interact with DNA, fluorescing red. This two color readout allowed discrimination between live versus dead sporozoites. Sporozoites were incubated at room temperature with two different concentrations of compounds for 15 min and then counted. […] Compound 4 and 18 at 62.5 μM reduced sporozoite viability to 82% and 88%, respectively. At these concentrations, assays could be performed such that the compounds would not kill the parasite. Instead, the compounds merely impaired parasite mobility, indicating an on-target effect of the small molecule on Aldolase-TRAP. By modulating this interaction, despite not killing the parasites at that point, a dramatic reduction in liver cell invasion was observed (FIG. 14A). […] As these dyes are unable to be fixed and sporozoites are not viable for long periods of time, it is possible that there are some viability variances due to difference in time from incubation with the dye until counting.

The structures appear in SMILES notation.

MTRAP interaction with aldolase, sequence (Q7KQL9 whole entry): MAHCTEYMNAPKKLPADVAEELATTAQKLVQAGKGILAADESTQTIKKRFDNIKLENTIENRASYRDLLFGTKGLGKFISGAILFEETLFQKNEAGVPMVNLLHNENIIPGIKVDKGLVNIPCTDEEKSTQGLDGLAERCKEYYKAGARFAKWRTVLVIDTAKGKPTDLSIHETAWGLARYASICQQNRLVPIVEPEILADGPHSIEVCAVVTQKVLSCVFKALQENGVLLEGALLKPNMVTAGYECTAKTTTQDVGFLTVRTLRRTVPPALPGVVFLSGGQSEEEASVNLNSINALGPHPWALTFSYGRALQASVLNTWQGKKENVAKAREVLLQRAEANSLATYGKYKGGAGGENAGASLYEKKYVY

One may read the viability as a read-out of living cells in per cent, often relative to untreated cells. Turning to `CCCCn1c(N)c(C(=O)NCc2ccccc2)c2nc3ccccc3nc21` [Compound 18, 2-amino-N-benzyl-1-butyl-1H-pyrrolo[2,3-b]quinoxaline-3-carboxamide], the “increase in average trail size (trail radius) vs DMSO control” value in series [1] was found to be 3.6 microns. For the same molecule, in series [2] (62.5 μM), the average gliding velocity was 1.88+/−0.17 um/s. In series [2], the “total time spent gliding” value is 16 frames; the “pausing, fraction of active gliding time” value was 16%; the waving sporozoites was 66%. In addition, in series [3], the “binding interaction of MTRAP with aldolase in presence of compound” value was “Increased binding interaction”. In series [4], the viability at 62.5 µM was 88% and the “sporozoite viability (ethidium/calcein-AM)” value was “did not differ from the control”.
Consider `Brc1ccc(Nc2nc3ccccc3nc2Nc2ccc(Br)cc2)cc1` [Compound 4, N,N′-bis(4-bromophenyl)-2,3-quinoxalinediamine], for which the “increase in average trail size (trail radius) vs DMSO control” value in series [1] came to 6.3 microns. Also, the average gliding velocity in series [2] (3.9 μM) is 1.81+/−0.09 um/s. In series [2], the “total time spent gliding” value amounted to 25 frames; the “pausing, fraction of active gliding time” value was 32%; the waving sporozoites is recorded as 72%. In addition, in series [3], the “binding interaction of MTRAP with aldolase in presence of compound” value is given as “Increased binding interaction”. In addition, in series [4], the viability at 62.5 µM was 82% and the “sporozoite viability (ethidium/calcein-AM)” value is listed as 66%.
